Assay: solvent given as SMILES

With Cc1cc(O)c(C(=O)/C=C/c2ccc(N(C)C)cc2)c(=O)o1 the emission maximum (in CC#N) was 561 nm and the emission maximum (in ClCCl) was 573 nm.
Work on Nc1nc2ccc(F)cc2[n+]([O-])n1 yielded an emission maximum (in CC#N) of 491 nm and an emission maximum (in O) of 526 nm.
In the case of O[Si](c1c2ccccc2cc2ccccc12)(c1c2ccccc2cc2ccccc12)c1c2ccccc2cc2ccccc12, the emission maximum (in ClC(Cl)Cl) is reported as 434 nm.
In the case of CC(=O)OCCN1C(=O)c2cccc3c(Oc4ccccc4C)ccc(c23)C1=O, the emission maximum (in ClC(Cl)Cl) is reported as 419 nm.
N#Cc1c(N2CCCCC2)cc(-c2ccc3ccc4cccc5ccc2c3c45)c2c1-c1ccccc1C2=O showed an emission maximum (in C1CCOC1) of 528 nm.
For COc1ccc(-c2nc(N)nc(C#N)c2C#N)cc1OC, the emission maximum (in C1COCCO1) was 428 nm, the emission maximum (in CC#N) was 456 nm and the emission maximum (in CC(C)=O) was 430 nm. The emission maximum (in CCO) was 436 nm, the emission maximum (in CCOC(C)=O) was 442 nm and the emission maximum (in CO) was 442 nm.
Work on O=C1Cc2ccc(cc2)CC(=O)Cc2ccc(c3nsnc23)C1 yielded an emission maximum (in C1CCCCC1) of 468 nm, an emission maximum (in CC#N) of 495 nm and an emission maximum (in ClC(Cl)Cl) of 488 nm.
Cc1ccc(-c2c3nc(c(-c4ccc(C)cc4)c4ccc([nH]4)c(-c4ccc(OC(=O)C(C)c5ccc(Oc6ccccc6)cc5)cc4)c4nc(c(-c5ccc(C)cc5)c5ccc2[nH]5)C=C4)C=C3)cc1 (stereo unspecified) showed an emission maximum (in ClCCl) of 653 nm.
In the case of CCCCCCN1C(=O)c2cccc3c(-c4ccc(-c5cc(-c6ccc(C)cc6)nn5-c5ccccc5)s4)ccc(c23)C1=O, the emission maximum (in ClCCl) is reported as 519 nm.
CCCCCCCCOC(=O)c1cc2ccc3ccccc3c2c(C#N)c1N gave an emission maximum (in Cc1ccccc1) of 467 nm.
N#CC(C#N)=Cc1ccc2c(c1)c1cc(C=C(C#N)C#N)ccc1n2-c1cccc2ccccc12 showed an emission maximum (in ClCCl) of 453 nm.
With c1ccc(N(c2ccccc2)c2ccc(-c3cccc4nc5ccccc5cc34)cc2)cc1 the emission maximum (in C1CCOC1) was 535 nm, the emission maximum (in CC#N) was 572 nm and the emission maximum (in CC(C)OC(C)C) was 496 nm. It also gave an emission maximum (in CCCCCC) of 462 nm, an emission maximum (in CCCCOCCCC) of 491 nm and an emission maximum (in CCN(CC)CC) of 479 nm. For the same compound, the emission maximum (in CCOC(C)=O) was 532 nm, the emission maximum (in CCOCC) was 507 nm and the emission maximum (in CN(C)C=O) was 566 nm. For the same compound, the emission maximum (in ClCCl) was 555 nm.
In the case of C[Si](C)(C)c1sc([Si](C)(C)C)c2c1sc1c2sc2sc3sc4c(sc5c([Si](C)(C)C)sc([Si](C)(C)C)c54)c3c21, the emission maximum (in ClC(Cl)Cl) is reported as 360 nm.
For CCOc1ccc2c(-c3nc(-c4ccccc4F)no3)cc(=O)oc2c1, the emission maximum (in CCO) was 465 nm and the emission maximum (in ClC(Cl)Cl) was 453 nm.
In the case of CCCC1(CCC)c2cc(-c3ccc4c(c3)C(CCC)(CCC)c3cc(-c5ccc6c(c5)C(CCC)(CCC)c5cc(C(C)(C)CC)ccc5-6)ccc3-4)ccc2-c2ccc(-c3ccc4c(c3)C(CCC)(CCC)c3cc(C(C)(C)CC)ccc3-4)cc21, the emission maximum (in C1CCCCC1) is reported as 407 nm.
Compound CN(C)c1ccccc1 has an emission maximum (in C1CCCCC1) of 339.9 nm.
Compound c1ccc2c(c1)ccc1ccc3ccc4ccccc4c3c12 has an emission maximum (in ClC(Cl)Cl) of 424 nm.
In the case of CCNc1ccc2c(c1)C(C)(C)C(=O)C=C2, the emission maximum (in O) is reported as 541 nm.
In the case of CC(C)[Si](C#Cc1c2nsnc2c(C#C[Si](C(C)C)(C(C)C)C(C)C)c2nc3c4ccccc4c(=O)c4ccccc4c3nc12)(C(C)C)C(C)C, the emission maximum (in ClCCl) is reported as 594 nm.
With c1ccc(-c2nc(-c3ccccc3)nc(-c3cc(-n4c5ccccc5c5ncccc54)c(-n4c5ccccc5c5ccccc54)c(-n4c5ccccc5c5ncccc54)c3)n2)cc1 the emission maximum (in CC#N) was 525.35 nm, the emission maximum (in CCCCCC) was 446.05 nm and the emission maximum (in Cc1ccccc1) was 464.88 nm. It also gave an emission maximum (in ClCCl) of 502.79 nm and an emission maximum (in O=P(c1ccccc1)(c1ccccc1)c1ccccc1Oc1ccccc1P(=O)(c1ccccc1)c1ccccc1) of 455.49 nm.
With CC(C)(C)c1cc(C(C)(C)C)c2oc3c(c2c1)C=CN1C(=O)C2=C4c5oc6c(C(C)(C)C)cc(C(C)(C)C)cc6c5C=CN4C(=O)C2=C31 the emission maximum (in CN(C)C=O) was 658 nm and the emission maximum (in ClC(Cl)Cl) was 651 nm.
CCOC(=O)c1ccc(C2=Cc3ccccc3P2(=O)c2ccccc2)cc1 (stereo unspecified) gave an emission maximum (in ClCCl) of 425 nm.
Work on C(#Cc1ccc2ncsc2c1)c1ccc(N(c2ccccc2)c2ccccc2)cc1 yielded an emission maximum (in Cc1ccccc1) of 428 nm.
In the case of CCn1c2ccccc2c2cc(C#Cc3cc(C#Cc4ccc5c(c4)c4ccccc4n5CC)nc(SC)n3)ccc21, the emission maximum (in C1CCOC1) is reported as 449 nm, the emission maximum (in CCOC(C)=O) is reported as 446 nm and the emission maximum (in CN(C)C=O) is reported as 502 nm. The emission maximum (in Cc1ccccc1) was 416 nm and the emission maximum (in ClCCl) was 471 nm.
CCCCCCN1C(=O)c2cccc3c(-c4ccc(-c5cccs5)s4)ccc(c23)C1=O gave an emission maximum (in ClC(Cl)Cl) of 534 nm.
In the case of c1ccc2c(-n3c(-c4ccc(-c5ccc(-c6nc7c8ccccc8c8ccccc8c7n6-c6cccc7ccccc67)c6ccccc56)c5ccccc45)nc4c5ccccc5c5ccccc5c43)cccc2c1, the emission maximum (in ClCCl) is reported as 428 nm.
With N#Cc1nc(N(Cc2ccc(F)cc2)Cc2ccc(F)cc2)c(C#N)nc1N(Cc1ccc(F)cc1)Cc1ccc(F)cc1 the emission maximum (in ClC(Cl)Cl) was 577 nm.
Work on CCCCCCCCCCCCN1C(=O)c2c(c3ccc4cc(-c5ccc(N(C)C)cc5)c(OC)cc4c3c3c2ccc2cc(-c4ccc(N(C)C)cc4)c(OC)cc23)C1=O yielded an emission maximum (in ClCCl) of 620 nm.
For C(=C\c1cnccn1)/c1ccc(N(c2ccccc2)c2ccc(/C=C/c3cnccn3)cc2)cc1, the emission maximum (in ClCCl) was 569 nm.
For c1ccc2c(c1)ncc1ccc3cnc4ccccc4c3c12, the emission maximum (in CC#N) was 408 nm.
For CCCCCCCC[Si](C)(C)c1cccc2ccccc12, the emission maximum (in C1CCCCC1) was 329 nm.
Compound c1ccc(-c2nnc(-c3ccc(N4c5ccccc5N(c5ccccc5)c5ccccc54)cc3)o2)cc1 has an emission maximum (in Cc1ccccc1) of 577 nm and an emission maximum (in c1cc(-n2c3ccccc3c3ccccc32)cc(-n2c3ccccc3c3ccccc32)c1) of 550 nm.

Reference: the Deep4Chem optical property database
